# Residues, ends and D or L forms follow the SMILES beside them.
# What was measured:
# [1] = species: Homo sapiens; assay: Anticoagulant activity in human plasma assessed as prolongation of activated partial thromboplastin time by measuring concentration required to double aPTT; type: functional
# [2] = Stability of compound in human serum at 50 uM incubated for 24 hrs by reversed phase HPLC analysis; type: ADME, cell-free
# [3] = Inhibition of FXIIa (unknown origin) using Ac-QRFR-pNA as substrate measured at 30 sec interval by microplate reader assay; set-up: species or system Homo sapiens
# [4] = Inhibition of human FXIIa
# [5] = molecular target: Plasminogen (Homo sapiens, UniProt P00747); assay: Inhibition of human plasmin using Ac-RM(O2)YR-pNA as substrate
# [6] = Inhibition of human cationic trypsin using Boc-VPR-MCA as susbtrate
# [7] = molecular target: Plasma kallikrein (Homo sapiens, UniProt P03952); assay: Inhibition of human plasma kallikrein using Z-FR-MCA as substrate; type: cell-free
# [8] = Inhibition of human FXIa using Boc-Glu(OBzl)-AR-MCA as substrate
# [9] = Inhibition of human beta-FIXa using Boc-QGR-MCA as substrate
# [10] = Inhibition of human FXa using Z-Pyr-GR-MCA as substrate
# [11] = molecular target: T1, Suppressor of tumorigenicity 14 protein (Homo sapiens, UniProt Q9Y5Y6); assay: Inhibition of recombinant human matriptase using Boc-QAR-MCA as substrate
# T1 sequence (Q9Y5Y6 whole entry): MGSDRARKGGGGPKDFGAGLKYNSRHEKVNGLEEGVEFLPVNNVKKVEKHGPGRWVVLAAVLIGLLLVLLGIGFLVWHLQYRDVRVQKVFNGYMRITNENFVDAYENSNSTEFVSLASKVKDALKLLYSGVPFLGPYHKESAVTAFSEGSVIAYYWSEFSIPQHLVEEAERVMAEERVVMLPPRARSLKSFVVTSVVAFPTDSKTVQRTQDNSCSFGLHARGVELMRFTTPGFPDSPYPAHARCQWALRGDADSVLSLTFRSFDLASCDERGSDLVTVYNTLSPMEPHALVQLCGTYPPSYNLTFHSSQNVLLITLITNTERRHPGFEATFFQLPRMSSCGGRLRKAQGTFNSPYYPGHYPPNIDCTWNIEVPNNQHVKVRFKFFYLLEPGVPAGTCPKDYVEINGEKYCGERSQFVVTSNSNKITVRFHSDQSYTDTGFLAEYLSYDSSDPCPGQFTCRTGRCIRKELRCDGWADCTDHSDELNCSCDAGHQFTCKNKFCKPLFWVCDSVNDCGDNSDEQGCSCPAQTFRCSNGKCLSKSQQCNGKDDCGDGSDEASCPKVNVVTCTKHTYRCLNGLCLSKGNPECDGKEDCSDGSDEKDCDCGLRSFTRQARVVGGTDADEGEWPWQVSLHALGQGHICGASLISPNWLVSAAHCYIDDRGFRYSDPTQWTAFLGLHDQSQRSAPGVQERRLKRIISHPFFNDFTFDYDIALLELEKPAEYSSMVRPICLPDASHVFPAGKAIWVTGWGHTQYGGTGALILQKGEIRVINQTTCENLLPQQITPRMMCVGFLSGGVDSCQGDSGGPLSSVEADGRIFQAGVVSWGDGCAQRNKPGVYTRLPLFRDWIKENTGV
# [12] = Stability of compound in human serum at 50 uM incubated for 8 hrs by reversed phase HPLC analysis; type: ADME, cell-free; conditions: read-out: Stability
# Sequence of Plasma kallikrein (P03952 20-390 limits assumed): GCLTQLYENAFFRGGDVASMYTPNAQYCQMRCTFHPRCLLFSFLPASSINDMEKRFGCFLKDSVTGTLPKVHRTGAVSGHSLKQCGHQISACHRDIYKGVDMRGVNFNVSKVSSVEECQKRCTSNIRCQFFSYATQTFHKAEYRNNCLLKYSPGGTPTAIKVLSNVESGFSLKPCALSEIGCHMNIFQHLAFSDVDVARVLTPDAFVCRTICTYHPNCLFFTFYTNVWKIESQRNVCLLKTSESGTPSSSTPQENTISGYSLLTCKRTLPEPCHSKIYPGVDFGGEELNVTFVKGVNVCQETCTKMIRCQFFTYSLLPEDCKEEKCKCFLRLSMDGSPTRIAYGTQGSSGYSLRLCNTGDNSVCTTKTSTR
# Sequence of Plasma kallikrein (P03952 391-638 limits assumed): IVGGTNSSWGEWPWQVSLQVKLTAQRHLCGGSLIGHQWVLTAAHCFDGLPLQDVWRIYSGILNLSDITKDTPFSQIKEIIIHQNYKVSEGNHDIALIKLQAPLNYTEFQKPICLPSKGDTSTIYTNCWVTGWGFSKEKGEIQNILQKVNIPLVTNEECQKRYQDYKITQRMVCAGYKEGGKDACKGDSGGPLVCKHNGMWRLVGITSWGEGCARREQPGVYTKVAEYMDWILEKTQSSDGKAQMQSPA
# Sequence of Plasminogen (P00747 97-580 limits assumed): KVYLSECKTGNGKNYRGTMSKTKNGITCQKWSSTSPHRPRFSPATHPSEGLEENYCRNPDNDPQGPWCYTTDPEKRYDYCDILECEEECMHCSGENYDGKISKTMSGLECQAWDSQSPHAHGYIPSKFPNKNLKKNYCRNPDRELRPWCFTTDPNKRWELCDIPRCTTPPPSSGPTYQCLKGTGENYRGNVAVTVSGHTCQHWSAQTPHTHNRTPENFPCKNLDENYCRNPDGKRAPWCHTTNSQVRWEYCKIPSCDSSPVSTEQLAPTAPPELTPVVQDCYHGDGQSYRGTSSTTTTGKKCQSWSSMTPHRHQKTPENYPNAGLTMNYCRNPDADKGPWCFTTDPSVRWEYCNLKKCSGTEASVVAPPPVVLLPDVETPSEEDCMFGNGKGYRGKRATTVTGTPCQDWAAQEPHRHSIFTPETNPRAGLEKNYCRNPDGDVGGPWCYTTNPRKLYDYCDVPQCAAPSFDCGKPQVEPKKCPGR
# Sequence of Plasminogen (P00747 581-810 limits assumed): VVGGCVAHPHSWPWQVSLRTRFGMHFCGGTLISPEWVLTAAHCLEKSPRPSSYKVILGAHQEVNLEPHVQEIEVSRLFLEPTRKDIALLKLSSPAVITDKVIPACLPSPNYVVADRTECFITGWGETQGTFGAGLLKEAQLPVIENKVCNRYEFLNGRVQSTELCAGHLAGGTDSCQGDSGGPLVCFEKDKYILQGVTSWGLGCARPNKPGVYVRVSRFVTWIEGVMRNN
Stability [2],Ki [3],IC50 [7],IC50 [8],IC50 [9],IC50 [10],Ki [11],SMILES,further results
,,,,,,,"CC[C@H](C)[C@@H]1NC(=O)[C@H](CCCNC(=N)N)NC(=O)[C@H](Cc2ccccc2)NC(=O)[C@@H](NC(=O)[C@H](CCCNC(=N)N)NC(=O)CNC(=O)CN)CSSC[C@@H]2NC(=O)[C@H](C)NC(=O)CNC(=O)[C@@H]3CCCN3C(=O)[C@@H]3CSSC[C@@H](C(=O)NCC(=O)N[C@@H](CO)C(=O)O)NC(=O)[C@H](Cc4ccc(O)cc4)NC(=O)CNC(=O)[C@H](CC(N)=O)NC(=O)CNC(=O)[C@H](CCCNC(=N)N)NC(=O)[C@H](CSSC[C@H](NC(=O)[C@H](CCCCN)NC(=O)[C@H](CCCCN)NC(=O)CNC1=O)C(=O)N[C@@H](CCCNC(=N)N)C(=O)N[C@@H](CCCNC(=N)N)C(=O)N[C@@H](CC(=O)O)C(=O)N[C@@H](CO)C(=O)N[C@@H](CC(=O)O)C(=O)N3)NC(=O)[C@H]([C@@H](C)CC)NC2=O (HELM PEPTIDE1{G.G.R.C.F.R.I.G.K.K.C.R.R.D.S.D.C.P.G.A.C.I.C.R.G.N.G.Y.C.G.S}$PEPTIDE1,PEPTIDE1,4:R3-21:R3|PEPTIDE1,PEPTIDE1,11:R3-23:R3|PEPTIDE1,PEPTIDE1,17:R3-29:R3$$$V2.0) [listing 1 of 2 here]",Activity [1]: 2.5 µM
Stable,193 nM,,,,,,"CC[C@H](C)[C@@H]1NC(=O)[C@@H]2CSSC[C@@H]3NC(=O)[C@H](CCC(N)=O)NC(=O)CNC(=O)CNC(=O)[C@H](CC(=O)O)NC(=O)[C@H](CO)NC(=O)CNC(=O)[C@H](CO)NC(=O)CNC(=O)[C@@H]4CSSC[C@H](NC(=O)[C@H](CC(=O)O)NC(=O)[C@H](CO)NC(=O)[C@H](CC(=O)O)NC(=O)[C@H](CCCNC(=N)N)NC(=O)[C@H](CCCNC(=N)N)NC(=O)[C@H](CSSC[C@H](NC1=O)C(=O)N[C@@H](CCCNC(=N)N)C(=O)NCC(=O)N[C@@H](CC(N)=O)C(=O)NCC(=O)N[C@@H](Cc1ccc(O)cc1)C(=O)N4)NC(=O)[C@H](CCCCN)NC(=O)[C@H](CCCCN)NC(=O)[C@H](CC(C)C)NC(=O)[C@H]([C@@H](C)CC)NC(=O)[C@H](CCCNC(=N)N)NC(=O)[C@H](Cc1ccccc1)NC3=O)C(=O)N1CCC[C@H]1C(=O)NCC(=O)N[C@@H](C)C(=O)N2 (HELM PEPTIDE1{A.C.I.C.R.G.N.G.Y.C.G.S.G.S.D.G.G.Q.C.F.R.I.L.K.K.C.R.R.D.S.D.C.P.G}$PEPTIDE1,PEPTIDE1,2:R3-19:R3|PEPTIDE1,PEPTIDE1,4:R3-26:R3|PEPTIDE1,PEPTIDE1,10:R3-32:R3|PEPTIDE1,PEPTIDE1,1:R1-34:R2$$$V2.0)",
,,,,,,,CC(C)C[C@@H]1NC(=O)[C@H](CCC(N)=O)NC(=O)[C@H](Cc2c[nH]cn2)NC(=O)[C@@H]2CSCCC(=O)N3CN(CN(C3)C(=O)CCSC[C@H](NC(=O)[C@@H](CO)NC(=O)[C@H](N)CCCNC(=N)N)C(=O)N[C@@H](Cc3ccc(F)cc3)C(=O)N[C@@H](CCCNC(=N)N)C(=O)N[C@@H](CC(C)C)C(=O)N3CCC[C@H]3C(=O)N2)C(=O)CCSC[C@@H](C(=O)O)NC(=O)C[C@H](CCCNC(=N)N)NC1=O,Ki [4]: 0.37 nM
,3 nM,> 5000 nM,> 5000 nM,> 5000 nM,> 5000 nM,30 nM,"CC[C@H](C)[C@@H]1NC(=O)[C@@H]2CSSC[C@H](NC(=O)[C@H](CCCNC(=N)N)NC(=O)CNC(=O)CN)C(=O)N[C@@H](Cc3ccccc3)C(=O)N[C@@H](CCCNC(=N)N)C(=O)N[C@@H]([C@@H](C)CC)C(=O)N[C@@H](CC(C)C)C(=O)N[C@@H](CCCCN)C(=O)N[C@@H](CCCCN)C(=O)N[C@H]3CSSC[C@H](NC1=O)C(=O)N[C@@H](CCCNC(=N)N)C(=O)NCC(=O)N[C@@H](CC(N)=O)C(=O)NCC(=O)N[C@@H](Cc1ccc(O)cc1)C(=O)N[C@H](C(=O)NCC(=O)N[C@@H](CO)C(=O)O)CSSC[C@H](NC(=O)[C@H](CC(=O)O)NC(=O)[C@H](CO)NC(=O)[C@H](CC(=O)O)NC(=O)[C@H](CCCNC(=N)N)NC(=O)[C@H](CCCNC(=N)N)NC3=O)C(=O)N1CCC[C@H]1C(=O)NCC(=O)N[C@@H](C)C(=O)N2 (HELM PEPTIDE1{G.G.R.C.F.R.I.L.K.K.C.R.R.D.S.D.C.P.G.A.C.I.C.R.G.N.G.Y.C.G.S}$PEPTIDE1,PEPTIDE1,4:R3-21:R3|PEPTIDE1,PEPTIDE1,11:R3-23:R3|PEPTIDE1,PEPTIDE1,17:R3-29:R3$$$V2.0)",Ki [5]: 86 nM; Ki [6]: 275 nM
Stable,2 nM,> 5000 nM,> 5000 nM,> 5000 nM,> 5000 nM,1430 nM,"CC[C@H](C)[C@@H]1NC(=O)[C@H](CCCNC(=N)N)NC(=O)[C@H](Cc2ccccc2)NC(=O)[C@@H](NC(=O)[C@H](CCCNC(=N)N)NC(=O)CNC(=O)CN)CSSC[C@@H]2NC(=O)[C@H](C)NC(=O)CNC(=O)[C@@H]3CCCN3C(=O)[C@@H]3CSSC[C@@H](C(=O)NCC(=O)N[C@@H](CO)C(=O)O)NC(=O)[C@H](Cc4ccc(O)cc4)NC(=O)CNC(=O)[C@H](CC(N)=O)NC(=O)CNC(=O)[C@H](CCCNC(=N)N)NC(=O)[C@H](CSSC[C@H](NC(=O)[C@H](CCCCN)NC(=O)[C@H](CCCCN)NC(=O)CNC1=O)C(=O)N[C@@H](CCCNC(=N)N)C(=O)N[C@@H](CCCNC(=N)N)C(=O)N[C@@H](CC(=O)O)C(=O)N[C@@H](CO)C(=O)N[C@@H](CC(=O)O)C(=O)N3)NC(=O)[C@H]([C@@H](C)CC)NC2=O (HELM PEPTIDE1{G.G.R.C.F.R.I.G.K.K.C.R.R.D.S.D.C.P.G.A.C.I.C.R.G.N.G.Y.C.G.S}$PEPTIDE1,PEPTIDE1,4:R3-21:R3|PEPTIDE1,PEPTIDE1,11:R3-23:R3|PEPTIDE1,PEPTIDE1,17:R3-29:R3$$$V2.0) [listing 2 of 2 here]","remaining at 8 h, 50 µM [12]: 100%; IC50 [5]: > 5000 nM; IC50 [6]: > 5000 nM"
